Measured values published in US11033496B2, “Nanoparticles for delivery of chemopreventive agents” (OHIO STATE INNOVATION FOUNDATION, priority 2017, dated 2021).
Where two headings read alike, the source gives them in different places.

Test system: human OSCC cells (three oral SCC cell lines)
Format: cell-based
Settings: for maximum uptake (fluorescence intensity): 6 h
Protocol: Mean±S.D., n=18, *=p<0.01, ‡=p,0.001, Mann Whitney U 2-tailed test.
The internalization of free-IDA was more rapid than IDA-NP after 1-hour at 1000 nM (free-IDA: 21.08±5.33 vs. IDA-NP: 12.87±4.32). However, the maximum uptake of IDA-NP was greater than free-IDA after 6 hours at 2500 nM (IDA-NP: 43.53±8.42 vs. free-IDA: 27.61±5.66) and 5000 nM (IDA-NP: 64.44±12.71 vs. free-IDA: 31.06±7.24). [Data collected from three oral SCC cell lines, mean±SD, n=18, *P≤0.01 †P≤0.002, ‡P≤0.001; IDA-NP samples compared to free-IDA samples [Mann-Whitney U two-tailed Test].

CC(=O)[C@]1(O)Cc2c(O)c3c(c(O)c2[C@@H](O[C@H]2C[C@H](N)[C@H](O)[C@H](C)O2)C1)C(=O)c1ccccc1C3=O [free-IDA, idarubicin]
internalization / cellular uptake (fluorescence intensity) (1 h, 1000 nM): 21.08±5.33 | maximum uptake (fluorescence intensity) (2500 nM): 27.61±5.66 | maximum uptake (fluorescence intensity) (5000 nM): 31.06±7.24
